# “Also recorded” adds a separate entry of the source.
# Legend:
# [1] = system: TMS-associated plasticity; conditions: low dose; cited from earlier work
# [2] = system: motor cortex (iTBS synaptic plasticity); assay: Motor cortex iTBS, MEP and stimulus response curve, placebo-controlled crossover study in Major Depressive Disorder (NCT03937596); assay type: in vivo, human
# [3] = system: MDD-related cognitive impairment; assay: RCT of iTBS+DCS in MDD: cognition (PDQ, THINC-it N-Back); assay type: in vivo, human; conditions: iTBS+DCS 100 mg vs iTBS+Placebo; listed as DCS
# Description: The efficacy of 100 mg DCS as an adjunctive strategy to iTBS to reduce MDD-related cognitive impairment and/or improve cognition in MDD was be tested in the randomized controlled trial described in the above Example.
# Participants completed the Cognitive Failures Questionnaire (CFQ31) and the Perceived Deficits Questionnaire (PDQ) as well as the THINC-it computerized neurocognitive battery at baseline and after treatment.
# tDCS plasticity = conditions: compared with tDCS alone; cited from earlier work
# [4] = system: left primary motor cortex (iTBS synaptic plasticity); assay: Repeated spaced iTBS of motor cortex, MEP and stimulus response curve, placebo-controlled crossover trial in healthy individuals (NCT05081986); assay type: in vivo, human; conditions: n=20 healthy, vs placebo
# Description: Methods: This experiment was a pre-registered randomized, double-blind, placebo-controlled crossover trial (NCT05081986). Twenty healthy individuals were randomly assigned to one of two experimental arms of the crossover study: a) Placebo-D-cycloserine and b) D-cycloserine-placebo. In the placebo arm, participants received one oral dose of 100 mg microcrystalline cellulose one hour prior to iTBS. In the D-cycloserine 100 mg arm, participants received one oral dose of 100 mg D-cycloserine one hour before ITBS. Participants attended the laboratory on two occasions to complete both arms of the crossover design. Time of arrival was standardized across visits, and visits were separated by at least seven days.
# All TMS pulses were delivered using a neuro-navigated MagPro stimulator (X100 system, MagVenture, Denmark) with a biphasic Cool-B70 figure-eight coil. […] The peak-to-peak amplitude of MEPs were recorded from two surface electromyographic (EMG) electrodes placed on the right first dorsal interosseous muscle (FDI), with the ground electrode placed on the right styloid process. […]
# TMS was delivered to the left primary motor cortex to identify the area that, when stimulated, elicited the largest peak-to-peak FDI MEP amplitude (the hotspot). […] The resting motor threshold (RMT) was determined as the lowest stimulator output, which elicited peak-to-peak MEP amplitudes≥0.05 mV in 5/10 trials. […]
# [5] = system: treatment resistant major depressive disorder (MDD); assay: 4-week double-blind placebo-controlled RCT of iTBS+DCS in treatment resistant MDD: depression, CGI, anxiety, wellbeing outcomes; assay type: in vivo, human; conditions: for rate of clinical remission (MADRS≤10): iTBS+placebo 4.2%
# Description: Methods: In this preregistered (NCT03937596) single site 4-week randomized double-blind placebo-controlled trial, fifty participants with treatment resistant MDD were randomized 1:1 to ITBS+Placebo or iTBS+D-Cycloserine (100 mg). Participants were asked to take the adjunct or placebo at least 60 minutes prior to daily iTBS treatments for the first two weeks, and iTBS continued without an adjunct for weeks three and four. We utilized a MagPro X100 stimulator (MagVenture, Denmark) and a COOL-B70 coil. Targeting of the left DLPFC involved surface anatomy and the Beam F3 method^30. Although anatomical and functional neuroimaging was collected as part of the study protocol, targeting utilizing surface anatomy was chosen to increase generalizability to clinical settings where neuroimaging derived targets are not feasible. This target was registered to either the participant's anatomical MRI or to a template brain for those who could not complete neuroimaging (Visor2, ANT Neuro, the Netherlands). Resting motor threshold (rMT) was determined using electromyographic (EMG) electrodes placed over the first dorsal interosseous muscle, with threshold determined as the stimulus intensity required to elicit a minimum of 5 out of 10 EMG responses of >50 uV.
# Patients all received active-iTBS, consisting of a total of 600 pulses per session delivered in twenty trains of triplets at 50 Hz repeated at 5 Hz (2 s on 8 s off) at 80% rMT. Participants received daily treatments Monday through Friday for a total of 20 treatments.
# The primary outcome was change in depressive symptoms as measured by the Montgomery Asberg Depression Rating Scale (MADRS) at the conclusion of treatment. Secondary outcomes included clinical response (≥50% improvement in MADRS), clinical remission (MADRS≤10), and clinical global impression (CGI).
# [6] = system: motor cortex (MEP facilitation after iTBS); conditions: healthy participants, described elsewhere; cited from earlier work
# [7] = system: suicidal ideation and suicide risk in MDD; assay: RCT of iTBS+DCS in MDD: suicidal ideation and death-implicit association test; assay type: in vivo, human; conditions: iTBS+DCS vs iTBS+Placebo, listed as DCS
# Text: Participants also completed a computerized neuropsychological test called the death-implicit association test that is associated with suicide attempts, both retrospectively and prospectively.
# [8] = system: neurite density at the iTBS target site; assay: RCT of iTBS+DCS in MDD: NODDI diffusion MRI at iTBS target site; assay type: in vivo, human; conditions: iTBS+DCS treated participants; not in iTBS+Placebo; listed as DCS
# Text: Neurite Density and Dispersion Orientation Index (NODDI)^32 is an MRI tool that provides a proxy measure of neurite morphology and arborization that has been validated against histology in model species^33,34. While more commonly applied to white matter, NODDI has discriminating power in cortical gray matter in both health and disease^35-37. Neurite density metrics reflect the volume within neurites, whereas orientation dispersion metrics capture the tortuosity or complexity of neural processes, both of which are affected in MDD.
# In the randomized placebo-controlled trial discussed in the Example above, diffusion magnetic resonance data to quantify Neurite Density and Dispersion Orientation Index (NODDI)^32 were acquired using a 3T General Electric Discovery MR750 scanner at the Seaman Family MR Research Center. This method provides a proxy measure of histopathological features in brain white and gray matter to describe neurite morphology and arborization.
compound,measurement,setting,value
N[C@@H]1CONC1=O [D-cycloserine],short-term facilitation with high-frequency rTMS,[1],increases short-term facilitation
same,relationship between ΔAUC 90 min and ΔAUC NextDay of the SRC,"[2]; D-cycloserine groups, placebo groups weak negative relationship",positively correlated; also recorded: positive relationship
same,MEP time course following iTBS,"[2]; MDD participants n=12, 100 mg, vs placebo arm",did not impact
same,change in stimulus response curve the day following iTBS,"[2]; MDD participants, 100 mg, compared with healthy-placebo and MDD-placebo",normalized
same,"objective cognitive function, N-Back task of working memory",[3],significantly greater improvements; also recorded: significant improvements
same,subjective cognitive function (Perceived Deficits Questionnaire),[3],significantly greater improvements; also recorded: significant improvements
same,duration of sustained plasticity with transcranial direct current stimulation,tDCS plasticity,more than 12 hours
same,facilitation of MEP peak to peak amplitude after repeated spaced iTBS,"[4]; 100 mg oral one hour before iTBS, two iTBS separated by an hour",not impacted
same,stimulus response curve change after iTBS,[4]; adjunctive 100 mg,significant and sustained facilitation
same,OR of clinical response,"[5]; 2 weeks, iTBS+DCS vs iTBS+placebo, 95% CI: 1.41-21.03",5.45
same,rate of clinical remission (MADRS≤10),[5]; 2 weeks,17.4%
same,rate of clinical response (≥50% improvement in MADRS),"[5]; 2 weeks, iTBS+placebo 16.7%",52.2%
same,OR of clinical remission,"[5]; 4 weeks, iTBS+DCS vs iTBS+placebo, 95% CI: 1.68-129.52",14.78
same,OR of clinical response,"[5]; 4 weeks, iTBS+DCS vs iTBS+placebo, 95% CI: 1.91-24.77",6.88
same,rate of clinical remission (MADRS≤10),[5]; 4 weeks,39.1%
same,rate of clinical response (≥50% improvement in MADRS),"[5]; 4 weeks, iTBS+placebo 29.2%",73.9%
same,change in depressive symptoms (MADRS scores),"[5]; iTBS+DCS 100 mg vs iTBS+Placebo, mITT, 4 weeks, listed as DCS",significant improvement in depressive symptoms; also recorded: greater reductions in depressive symptoms
same,"MADRS mean difference, per treatment analyses","[5]; iTBS+DCS vs iTBS+Placebo, 2 weeks, 95% CI: 0.43-7.51",3.97
same,"MADRS mean difference, per treatment analyses","[5]; iTBS+DCS vs iTBS+Placebo, 4 weeks, 95% CI: 2.66-11.52",7.09
same,Hedge's g (MADRS change),"[5]; iTBS+DCS vs iTBS+Placebo, 95% CI: 0.34-1.62",0.99
same,CGI-Improvement scores,"[5]; iTBS+DCS vs iTBS+Placebo, at 2 weeks and 4 weeks, listed as DCS",greater improvements on the clinical global impression scale; also recorded: greater improvement
same,mean difference on the MADRS,"[5]; iTBS+DCS vs iTBS+Placebo, mITT, baseline to 4 weeks, 95% CI: 2.43-9.88, p=0.001",6.15
same,CGI-severity scale,"[5]; iTBS+DCS vs iTBS+Placebo, p=0.0014, listed as DCS",greater improvements in clinical global impression severity scores
same,visual analog scale for overall wellbeing,"[5]; iTBS+DCS vs iTBS+Placebo, p=0.018, listed as DCS",greater improvements in overall wellbeing; also recorded: greater improvement
same,self-reported anxiety symptoms (GAD-7),"[5]; iTBS+DCS vs iTBS+Placebo, p=0.035, listed as DCS",greater improvements in anxiety; also recorded: greater improvement
same,facilitation of MEPs after iTBS,[6],blunted facilitation of MEPs
same,suicidal ideation,[7],rapid resolution of suicidal ideation; also recorded: greater reductions in suicidal ideation
same,death-implicit association test performance,[7]; persisted when controlling for depressive symptom improvement,showed improvement; also recorded: greater reductions in scores
same,neurite density at the target site (NODDI),[8],increased neurite density; also recorded: Neurite density increases

# Reference: patent US20240245654A1, “ADJUNCTIVE D-CYCLOSERINE AUGMENTATION OF TRANSCRANIAL MAGNETIC STIMULATION (TMS) THERAPY FOR MAJOR DEPRESSIVE DISORDER” (MCGRX CORP., priority 2021, published 2024)
